Results as given in patent US11439615B2, “Lipoxin and lipoxin analogue mediated neuroprotection and treatments” (University Health Network, priority 2017, dated 2022).

How the values were obtained:
[1] = system: retinal ganglion cell neurons (RGCs); assay: Mouse acute retinal insult model (intravitreal kainic acid), RGC survival / GCL apoptosis; assay type: in vivo; details: 2 μl of 10 μM intravitreally one hour prior to retinal KA insult; RBPMS counts
Experimental: Male C57BLL/6 mice, 4-6 weeks of age, were purchased from Taconic or Jackson labs. All experimental protocols were approved by the UHN and UC Berkeley ACUC in accordance with applicable regulations. Mice were anesthetized by intraperitoneal injection of ketamine/xylazine. Intravitreal injections with 10 mM kainic acid (KA) were performed as previously described (45). Briefly, a 30-gauge needle was inserted tangentially into the vitreous and replaced with a Hamilton syringe to inject a volume of 2 μL, followed by application of ophthalmic antibiotic ointment (BNP, Vetoquinol). In some experiments, 10× concentrated ACM or test compounds were injected intravitreally one hour prior to the KA injection in concentrations as follows: LXA4 and LXB4 at 10 μM, Zileuton at 2 μg/ul, and WRW4 at 15 μM, all dissolved in PBS. Mice were euthanized by CO2 asphyxiation 18 hours post KA treatment and the eyes fixed in 4% paraformaldehyde. In all experiments n refers to the number of animals tested.
To quantify the extent of apoptosis, a well-established method was used to count the number of TUNEL-positive nuclei in the ganglion cell layer (GCL) and expressed it as a fraction of the total GCL nuclei (50-54). TUNEL labeling was performed according to the manufacturer's instructions (DeadEnd; Promega). Briefly, cryostat sections were fixed with 4% PFA for 5 minutes and washed in PBS. Equilibration buffer was added, and rTdT reaction mix was applied to each slide and incubated at 37° C. for 60 min. Following the rTdT reaction, slides were washed in 2×SSC and PBS and finally mounted with glycerol-based medium. For RGC survival, RBPMS-positive cells in the GCL were counted and expressed as a fraction of GCL nuclei. For each eye, at least five central retinal sections were analyzed at the level of the optic nerve stretching to each ora serrata, and the results averaged, as previously described (42).
In order to test the influence of the transplanted cells on inner retinal pathology, RA's were transplanted as above. After 16 days retinas were challenged with an acute metabolic injury by injection of kainic acid (KA). […]
Retinal astrocyte neuroprotection is mediated through secreted factors that include a small molecule component enriched in LXA4 and LXB4. […] This time, survival of RGCs was specifically assessed by probing for the selective marker RBPMS, along with complementary TUNEL staining, and quantified as previously. As expected, extensive RGC loss was detected in KA challenged eyes injected with cell-free control media incubated under the same conditions as ACM (FIG. 2A). […]

primary RGCs = assay: Primary RGCs under serum deprivation, cell and neurite survival (β3-tubulin); assay type: cell-based, rat; details: 1 μM, 48 hours of serum and supplement deprivation
Experimental: For astrocytes: Primary mature retinal astrocytes (RA) were isolated and cultured as previously described (46). Briefly, eyes were dissected out of adult Wistar rats and placed in ice-cold MEM-H17 media. Isolated retinas were digested by shaking in MEM-H17 containing papain and DNAse, followed by trituration to disperse cell-aggregates. When cultures reached confluence, the cells were placed on a rotating shaker for 6-8 hours to remove microglia and then re-plated. A glial-specific expression profile was confirmed by probing the cultures with a panel of glia microglia and neuronal markers (44). For RGCs: RGCs were purified using magnetic MicroBeads (Miltenyi Biotec, Germany) according to the manufacturer's protocol. Briefly; retinal cell suspensions were prepared from 8-10 day old rats and incubated with CD90.1 microbeads, and then carefully washed with DPBS/BSA buffer. The suspension was centrifuged at 130×g and the supernatant aspirated. Cells were then incubated with biotinylated depletion antibodies against microglia and endothelial cells. The labeled cell suspension was then incubated with magnetic Anti-Biotin MACSiBead™ Particles, and placed in a weak magnetic field. The pre-enriched cell suspension was centrifuged, and resuspended in fresh DPBS/BSA buffer and applied to a MACs MS separation column in the presence of a strong magnetic field to select for CD90.1-bound RGCs. To increase RGC purity, the eluted fraction was enriched over a second column. Purified RGCs were eluted and plated on poly-D-lysine coated dishes. The cells were cultured in Neurobasal-A media (Gibco) supplemented with 2% calf serum, B27, L-glutamine, BDNF, CNTF, forskolin and pen/strep.
To further confirm direct lipoxin activity in primary neurons, the ability of LXA4 or LXB4 to protect primary RGCs was tested. RGCs were isolated by immunopanning according to established methods. The cells were subjected to serum deprivation (SD), and then stained for β3-tubulin to quantify cell and neurite survival. Under normal serum, the RGCs extended an extensive network of neurites. […]

primary cortical neurons = assay: Primary cortical neurons under paraquat oxidative stress, neuron number; assay type: cell-based; details: n=5
From the text: Quantification of neuron number following oxidative stress from the redox cycling compound paraquat in primary cortical neurons.

HT22 cells = assay: MitoTracker Red mitochondrial membrane potential in glutamate challenged HT22 cells; assay type: cell-based; details: 1 μM, HT22 cells challenged with glutamate
From the text: The mechanism of protection was investigated. […] FIG. 15B show quantification of fluorescent intensity per cell (n=3, *p<0.05, **p<0.01, bars represent S.E.M.).

SMILES | increase of RGC survival compared to vehicle control [1] [%] | neuron survival following serum deprivation (primary RGCs) | neuron number following oxidative stress from paraquat (primary cortical neurons) | glutamate induced increase in mitochondrial membrane potential (MitoTracker Red) (HT22 cells) | neurite degeneration following serum deprivation (intact neurite ratio) (primary RGCs)
CCCCC[C@H](O)/C=C/C=C\C=C\C=C\[C@@H](O)[C@@H](O)CCCC(=O)O [LXA4, 5S,6R,15S-trihydroxy-7E,9E,11Z,13E-eicosatetraenoic acid] | 37 | significant rescue | have activities |  | 
CCCCC[C@H](O)[C@H](O)/C=C/C=C/C=C\C=C\[C@@H](O)CCCC(=O)O [LXB4, 5S,14R,15S-trihydroxy-6E,8Z,10E,12E-eicosatetraenoic acid] | 50 | significant rescue | have activities | blocked the glutamate induced increase in mitochondrial membrane potential | strongly rescued
